Patent US7750155B2, “Pyrazinyl hydroxyacrylamide compounds having an inhibitory effect on the activity of histone deacetylase” (Astellas Pharma Inc., priority 2006, dated 2010)

Key:
[1] = system: blood corpuscles (platelet, white blood corpuscle); assay: Test 4: Measurement of change rate of blood corpuscles; assay type: in vivo; details: 4 mg/kg oral once a day for 14 days, male LEW rats, blood 24 hr after last administration
Description: Test 4: Measurement of Change Rate of Blood Corpuscles Experimental drugs were oral administered to rats (male LEW) once a day for continuous 14 days. The blood sample contained heparin and EDTA were collected at 24 hr after last administration, and the number of differential blood corpuscles were measured by auto-hemocytometer (Sysmex).

[2] = system: splenic cells of Lewis rats (T lymphocyte blastogenesis); assay: Test 2: T-cell growth inhibitor activity (T lymphocyte blastogenesis, Concanavalin A, AlamarBlue); assay type: cell-based; details: Lewis rat splenic cells, Concanavalin A 1 μg/mL, 72 hours, read-out: Test 2: T-cell growth inhibitory activity IC50
Description: Test 2: Determination of T-Cell Growth Inhibitor Activity
The T lymphocyte blastogenesis test was performed in microtiter plates with each well containing 1.5×10^5 splenic cells of Lewis rats in 0.1 mL RPMI-1640 medium supplemented with 10% fetal bovine serum (FBS), […] 2-mercaptoethanol, penicilln (100 units/mL) and streptomycin (100 μg/mL), to which Concanavalin A (1 μg/mL) was added. The cells were incubated at 37° C. in a humidified atmosphere of 5% CO2 for 72 hours. After the culture period, suppressive activities of the test compounds in T lymphocyte blastogenesis were quantified by AlamarBlue (trademark) Assay. The test samples were dissolved in DMSO and further diluted with RPMI-1640 medium and added to the culture. The activities of the test compounds were expressed as IC50.

[3] = system: T1, human histone deacetylase partially purified from human T cell leukemia Jurkat cells; assay: Test 1: Determination of histone deacetylase inhibitor activity ([3H]acetyl histone deacetylation); assay type: biochemical; details: partially purified human HDAC from Jurkat cells, [3H]acetyl histone substrate, 25° C., 30 minutes; read-out: Test 1: HDAC inhibitory activity IC50
T1 construct: The human histone deacetylase was partially purified from human T cell leukemia Jurkat cells
Description: Test 1: Determination of Histone Deacetylase Inhibitor Activity
The partial purification of human histone deacetylase, the preparation of [^3H] acetyl histones, and the assay for histone deacetylase activity were performed basically according to the method as proposed by Yoshida et al. as follows.
Partial Purification of Human Histone Deacetylase
The human histone deacetylase was partially purified from human T cell leukemia Jurkat cells. Jurkat cells (5×10^8 cells) were suspended in 40 mL of the HDA buffer consisting of 15 mM potassium phosphate, pH 7.5, 5% glycerol and 0.2 mM EDTA. After homogenization, nuclei were collected by centrifugation (35,000×g, 10 min) and homogenized in 20 mL of the same buffer supplemented with 1 M (NH4)2SO4. The viscous homogenate was sonicated and clarified by centrifugation (35,000×g, 10 min), and the deacetylase was precipitated by raising the concentration of (NH4)2SO4 to 3.5 M. The precipitated protein was dissolved in 10 mL of the HDA buffer and dialyzed against 4 liters of the same buffer. The dialyzate was then loaded onto a DEAE-cellulose (Whatman DE52) column (25×85 mm) equilibrated with the same buffer and eluted with 300 mL of a linear gradient (0-0.6 M) of NaCl. A single peak of histone deacetylase activity appeared between 0.3 and 0.4 M NaCl.
Preparation of [^3H] Acetyl Histone
To obtain [^3H] acetyl-labeled histone as the substrate for the histone deacetylase assay, 1×10^8 cells of Jurkat in 20 mL of RPMI-1640 medium (supplemented with 10% FBS, penicillin (50 units/mL) and streptomycin (50 μg/mL)) were incubated with 300 MBq [^3H] sodium acetate in the presence of 5 mM sodium butyrate for 30 minutes in 5% CO2-95% air atmosphere at 37° C. in a […] flask, harvested into a centrifuge tube (50 mL), collected by centrifugation at 1000 rpm for 10 minutes, and washed once with phosphate-buffered saline. The washed cells were suspended in 15 mL of ice-cold lysis buffer (10 mM Tris-HCl, 50 mM sodium bisulfite, 1% Triton X-100, 10 mM MgCl2, 8.6% sucrose, pH 6.5). After Dounce homogenization (30 stroke), the nuclei were collected by centrifugation at 1000 rpm for 10 minutes, washed 3 times with 15 mL of the lysis buffer, and once with 15 mL of ice-cooled washing buffer (10 mM Tris-HCl, 13 mM EDTA, pH 7.4) successively. The pellet was suspended in 6 mL of ice-cooled water using a mixer, and 68 μl of H2SO4 was added to the suspension to give a concentration of 0.4 N. After incubation at 4° C. for 1 hour, the suspension was centrifuged for 5 minutes at 15,000 rpm, and the supernatant was taken and mixed with 60 mL of acetone. After overnight incubation at −20° C., the coagulated material was collected by microcentrifugation, air-dried, and stored at −80° C.
Assay for Histone Deacetylase Activity
For the standard assay, 10 μl of [^3H] acetyl-labeled histones were added to 90 μl of the enzyme fraction, and the mixture was incubated at 25° C. for 30 minutes. The reaction was stopped by addition of 10 μl of HCl. The released [^3H] acetic acid was extracted with 1 mL of ethyl acetate, and 0.9 mL of the solvent layer was taken into 10 mL of toluene scintillation solution for determination of radioactivity.

decrease rate (%) platelet [1] | IC50 [3] | Structure (SMILES) | decrease rate (%) white blood corpuscle [1] | IC50 [2]
18.3% | 2.3 nM | Cl.Cl.O=C(/C=C/c1cnc(N[C@@H]2CCN(CCc3cccc(F)c3)C2)cn1)NO [Example 1, (2E)-3-[5-({(3R)-1-[2-(3-fluorophenyl)ethyl]-3-pyrrolidinyl}amino)-2-pyrazinyl]-N-hydroxyacrylamide dihydrochloride] | 43.7% | 2.4 nM
9.4% | 3.3 nM | Cl.Cl.O=C(/C=C/c1cnc(N[C@@H]2CCN(CCc3ccc(F)c(F)c3)C2)cn1)NO [Example 5, (2E)-3-[5-({(3R)-1-[2-(3,4-difluorophenyl)ethyl]-3-pyrrolidinyl}amino)-2-pyrazinyl]-N-hydroxyacrylamide dihydrochloride] | 40.3% | 0.93 nM
24.3% | 1.7 nM | Cl.Cl.O=C(/C=C/c1cnc(N[C@@H]2CCCN(CCc3cccc(F)c3)C2)cn1)NO [Example 6, (2E)-3-[5-({(3R)-1-[2-(3-fluorophenyl)ethyl]-3-piperidinyl}amino)-2-pyrazinyl]-N-hydroxyacrylamide dihydrochloride] | 72.2% | 0.65 nM
3.4% | 2.2 nM | COc1ccc(CCN2CC[C@@H](Nc3cnc(/C=C/C(=O)NO)cn3)C2)cc1.Cl.Cl [Example 18, (2E)-N-hydroxy-3-[5-({(3R)-1-[2-(4-methoxyphenyl)ethyl]-3-pyrrolidinyl}amino)-2-pyrazinyl]acrylamide dihydrochloride] | 31.7% | 2.2 nM
14.2% | 1.6 nM | Cl.Cl.O=C(/C=C/c1cnc(N[C@@H]2CCN(CCc3ccc(Br)cc3)C2)cn1)NO [Example 19, (2E)-3-[5-({(3R)-1-[2-(4-bromophenyl)ethyl]-3-pyrrolidinyl}amino)-2-pyrazinyl]-N-hydroxyacrylamide dihydrochloride] | 38.1% | 1.3 nM
18.6% | 2 nM | Cl.Cl.O=C(/C=C/c1cnc(N[C@@H]2CCN(CCc3ccc(Cl)cc3)C2)cn1)NO [Example 23, (2E)-3-[5-({(3R)-1-[2-(4-chlorophenyl)ethyl]-3-pyrrolidinyl}amino)-2-pyrazinyl]-N-hydroxyacrylamide dihydrochloride] | 64.6% | 1.7 nM
6.2% | 1.8 nM | Cl.Cl.O=C(/C=C/c1cnc(N[C@@H]2CCCN(CCC3CCCCC3)C2)cn1)NO [Example 25, (2E)-3-(5-{[(3R)-1-(2-cyclohexylethyl)-3-piperidinyl]amino}-2-pyrazinyl)-N-hydroxyacrylamide dihydrochloride] | 63.1% | 2.2 nM
